# According to US20170150715A1, “METHODS OF ELIMINATING SPORES” (Lifeclean International AB, priority 2013, published 2017):
# Marks after values point to notes of the source that are not given here.
# Tests used:
# [1] = system: spores of C Difficile, Ribotype 25; test: Elimination of spores of C Difficile on glass surfaces, types and combinations of surface active agents (Example 6); type: cell-based, Clostridium difficile
# Procedure: Example 6 was designed in order to evaluate different types and combinations of surface active agents in combination with chlorine oxide for elimination of spores of C Difficile on surfaces. The following test solutions were used:
# The solutions were prepared in accordance with Examples 2, 2A and 3. RD1 and RD2 signify the anionic surfactants of Example 3 branded DOWFAX 3B2 and DOWFAX 8390, respectively. RD3 and RD4 signify the cationic surfactants of Example 2A branded AO-8 Macat and AO-12 Macat.
# A spore suspension was generated and counted in accordance with Example 4:
# Ribotype 25; 8.0×10^9 spores/mL (8.0×10^8 spores on the glass surface) approximately 80% spores in the suspension.
# (§1) The glass surfaces were prepared by transferring 0.1 ml of the spore solution to microscopy slides. After the suspension has dried, 0.2 ml of the test solutions were added to the slides for application times between 1 and 10 minutes. Subsequently, the glass surfaces were each placed in a 500 ml glass flask with 250 ml 0.85% NaCl solution and rotated at 200 rpm for 20 minutes.
# [2] = system: C difficile spores PCR Ribotype 023; test: Elimination of spores of Clostridium difficile on surfaces (Example 4; glass, brass, copper); type: cell-based; details: 10 minutes exposure; for Culture 6 PY-broth undiluted / Culture 7 PY-broth 10^−2 / Culture 8 PY-broth 10^−4 / Culture 9 PY-broth 10^−6: cotton tip smear of surface; for total amount of CFUs in the flasks (within brackets): surviving spores displaced from the surface; for amount of CFU in the undiluted PY-broth (within brackets): surviving spores remaining attached to the surface
# From the text: C difficile spores PCR Ribotype 023 (ECDC/Cardiff nomenclature) were transferred from a frozen sample to plates with Fastidious Anaerobe Agar (FAAAP), cultured under anaerobe conditions for 2 days. The cultures were transferred to ambient conditions and colonies of C difficile were admitted to sporulate. The spores were harvested and dissolved in sterile water (reverse osmosis (RO)), subjected to alcohol shock (70%), washed, centrifugated and collected as a suspension of spores.
# In the preparation 0.1 ml of the spore suspension was transferred to microscopy slides, sterile plates of brass or copper. When the spore suspensions have dried, 0.2 ml of the following solutions were added:
# After 10 minutes exposure to the solutions, the Glasses and the plates were each transferred to a 500 ml Glass flask to dilute and interrupt disinfection. The flasks were rotated at 200 rpm for 20 minutes.
# From each of the rotated flasks 0.1 ml was transferred to agar plates (Culture 1). The samples were diluted in two steps 1/10 in tubes. From each tube, 0.1 ml was transferred to agar plates (Cultures 2 and 3).
# The solutions in the flasks were filtered and rinsed with 3×100 ml buffered peptone water (PENAL). The filtrations were performed in two steps. At first, 1 ml was filtered, then remaining volume of solution in the flasks (approx. 249 ml). The filters were cultured on agar plates (Cultures 4 and 5).
# At two times, 40 ml samples were taken from the filtrates. These were centrifugated and the supernatant was discarded, the pellet re-suspended in 0.1 ml 0.85% NaCl solution. The entire volume was transferred to agar plates.
# In order to assess if viable spore remain on the surfaces of Glasses and the, they were smeared with moist cotton tip (all smeared in accordance with a “double-S” shape). The tip was cultured in 2 ml pre-reduced PY-broth which was diluted 1/10 in several repeated steps and cultured on agar plates (0.2 ml/plate), (Cultures 6 to 9)
# All culture plates were cultured under anaerobe conditions at 36° C. for 2 days.
# [3] = system: spore suspension Ribotype 25; test: Elimination of spores on glass surfaces, different contact times (Example 7); type: cell-based, Clostridium difficile; details: glass surface, contact time 10 min
# Procedure: Example 7 outlines a test with different contact for chlorine dioxide solution according to the invention. A spore suspension was generated and counted in accordance with Example 4:
# Ribotype 25; 9.6×10^8 spores/mL (9.6×10^7 spores on the glass surface) approximately 80% spores in the suspension.
# as §1
# The test solution comprising chlorine dioxide was prepared in accordance with Example 2B, comprising 1600 ppm chlorine dioxide together with 0.2% (v/v) cationic surfactant comprising equal amounts of octyl dimethylamine oxide and lauryl dimethylamine oxide). After rotation, the contents of the flasks were treated and cultured with procedures and agar plates in accordance with Example 4.
# [4] = system: spore suspension Ribotype 25; test: Elimination of spores on glass surfaces, different concentrations of surfactants (Example 8); type: cell-based, Clostridium difficile; details: glass surface, application time 2 minutes
# Procedure: Example 9 outlines a test with chlorine dioxide solutions of 800 and 1600 ppm having different concentration of surfactants made in accordance with Example 2A. A spore suspension was generated and counted in accordance with Example 4:
# Ribotype 25; 8.0×10^8 spores/mL (8.0×10^7 spores on the glass surface) approximately 80% spores in the suspension.
# The glass surfaces were prepared by transferring 0.1 ml of the spore solution to microscopy slides. After the suspension has dried, 0.2 ml of the test solutions were added to the slides for an application time of 2 minutes. Subsequently, the glass surfaces were each placed in a 500 ml glass flask with 250 ml 0.85% NaCl solution and rotated at 200 rpm for 20 minutes.
# After rotation, the contents of the flasks were treated and cultured with procedures and agar plates in accordance with Example 4.
# [5] = 8.0×10^8 spores on the glass surface
# [6] = spores survived not detached from the surface
# [7] = surviving spores detached from the surface
structure (smiles),measurement,setting,value
"CCO [70% Ethanol, Ethanol]",0.1 mL Diluted 10^−1,[1]; [5],overgrown
same,0.1 mL Diluted 10^−2,[1]; [5],240 CFUs
same,0.1 mL From bottle,[1]; [5],overgrown
same,Filtration 1 mL,[1]; [5],overgrown
same,PY-broth Diluted 10^−2,[1]; [5],overgrown
same,PY-broth Diluted 10^−4,[1]; [5],86 CFUs
same,PY-broth Undiluted,[1]; [5],overgrown
same,number of CFUs in the undiluted PY-broth (brackets),[1]; [6],(8.6 × 10^6) CFUs
same,number of CFUs in the flask (brackets),[1]; [7],(6.0 × 10^7) CFUs
same,Culture 1 0.1 mL From bottle,[2]; Brass,overgrown
same,Culture 2 Dilution 10^−1,[2]; Brass,55 CFU
same,Culture 3 Dilution 10^−2,[2]; Brass,5 CFU
same,Culture 4 Filtration 1 mL,[2]; Brass,overgrown
same,Culture 5 Filtration 249 mL,[2]; Brass,overgrown
same,Culture 6 PY-broth undiluted,[2]; Brass,overgrown
same,Culture 7 PY-broth 10^−2,[2]; Brass,overgrown
same,Culture 8 PY-broth 10^−4,[2]; Brass,74 CFU
same,Culture 9 PY-broth 10^−6,[2]; Brass,0 CFU
same,total amount of CFUs in the flasks (within brackets),[2]; Brass,(1.4 × 10^6) CFU
same,amount of CFU in the undiluted PY-broth (within brackets),[2]; Brass,(7.4 × 10^6) CFU
same,Culture 1 0.1 mL From bottle,[2]; Copper,429 CFU
same,Culture 2 Dilution 10^−1,[2]; Copper,40 CFU
same,Culture 3 Dilution 10^−2,[2]; Copper,1 CFU
same,Culture 4 Filtration 1 mL,[2]; Copper,overgrown
same,Culture 5 Filtration 249 mL,[2]; Copper,overgrown
same,Culture 6 PY-broth undiluted,[2]; Copper,overgrown
same,Culture 7 PY-broth 10^−2,[2]; Copper,overgrown
same,Culture 8 PY-broth 10^−4,[2]; Copper,79 CFU
same,Culture 9 PY-broth 10^−6,[2]; Copper,0 CFU
same,total amount of CFUs in the flasks (within brackets),[2]; Copper,(1.0 × 10^6) CFU
same,amount of CFU in the undiluted PY-broth (within brackets),[2]; Copper,(7.9 × 10^6) CFU
same,Culture 1 0.1 mL From bottle,[2]; Glass,overgrown
same,Culture 2 Dilution 10^−1,[2]; Glass,517 CFU
same,Culture 3 Dilution 10^−2,[2]; Glass,46 CFU
same,Culture 4 Filtration 1 mL,[2]; Glass,overgrown
same,Culture 5 Filtration 249 mL,[2]; Glass,overgrown
same,Culture 6 PY-broth undiluted,[2]; Glass,overgrown
same,Culture 7 PY-broth 10^−2,[2]; Glass,overgrown
same,Culture 8 PY-broth 10^−4,[2]; Glass,39 CFU
same,Culture 9 PY-broth 10^−6,[2]; Glass,1 CFU
same,total amount of CFUs in the flasks (within brackets),[2]; Glass,(1.2 × 10^7) CFU
same,amount of CFU in the undiluted PY-broth (within brackets),[2]; Glass,(3.9 × 10^6) CFU
same,Number cfu Filtration 249 mL,[3],overgrown
same,Number cfu × 10 PY-broth Undiluted,[3],overgrown
same,Number cfu × 10^3 PY-broth Diluted 10^−2,[3],overgrown
same,Number cfu × 10^5 PY-broth Diluted 10^−4,[3],67 cfu
same,Number cfu × 10 × 250 0.1 mL From bottle,[3],overgrown
same,Number cfu × 100 × 250 0.1 mL Diluted 10^−1,[3],overgrown
same,Number cfu × 250 Filtration 1 mL,[3],overgrown
same,Number cfu × 1000 × 250 0.1 mL Diluted 10^−2,[3],103 cfu
same,number of CFUs in the undiluted PY-broth (brackets),[3]; [6],(6.7 × 10^6) CFUs
same,number of CFUs in the flask (brackets),[3]; [7],(2.6 × 10^7) CFUs
same,Number cfu × 100 × 250 0.1 mL Diluted 10^−2,"[4]; head lines shifted, by Table 4 layout: 0.1 mL Diluted 10^−1",overgrown
same,Number cfu × 1000 × 250 PY-broth Undiluted,"[4]; head lines shifted, by Table 4 layout: 0.1 mL Diluted 10^−2",81 cfu
same,Number cfu × 10 × 250 0.1 mL Diluted 10^−1,"[4]; head lines shifted, by Table 4 layout: 0.1 mL From bottle",overgrown
same,Number cfu × 250 0.1 mL From bottle,"[4]; head lines shifted, by Table 4 layout: Filtration 1 mL",overgrown
same,Number cfu Filtration 1 mL,"[4]; head lines shifted, by Table 4 layout: Filtration 249 mL",overgrown
same,Number cfu × 10^3 PY-broth Diluted 10^−4,"[4]; head lines shifted, by Table 4 layout: PY-broth Diluted 10^−2",overgrown
same,Number cfu × 10^5 Filtration 249 mL,"[4]; head lines shifted, by Table 4 layout: PY-broth Diluted 10^−4",28 cfu
same,Number cfu × 10 PY-broth Diluted 10^−2,"[4]; head lines shifted, by Table 4 layout: PY-broth Undiluted",overgrown
same,number of CFUs in the undiluted PY-broth (brackets),[4]; [6],(2.8 × 10^6) CFUs
same,number of CFUs in the flask (brackets),[4]; [7],(2.0 × 10^7) CFUs
